The values that follow come from ChEMBL document CHEMBL3044665, “Adzuki bean (Vigna angularis) responses to post-emergence herbicides” (Crop Prot, 2006).

Each structure is given as a SMILES string.

What all share (type): organism-based
Data set [1] has as its system Vigna angularis. In words: Phytotoxicity in Vigna angularis (adzuki bean) assessed as visual injury at 72 g ai/ha after 7 days applied as spray relative to untreated control. Particulars: in vivo, other, 168 h.
Data set [2] relates to Vigna angularis. The data set can be described thus: Phytotoxicity in Vigna angularis (adzuki bean) assessed as crop yield at 72 g ai/ha measured during post emergence applied as spray (reference value: 2.05 t/ha). Particulars: in vivo, other.
In data set [3] the test system is Vigna angularis. The data set can be described thus: Phytotoxicity in Vigna angularis (adzuki bean) assessed as seed moisture content at 144 g ai/ha after 42 days applied as spray (reference value: 13.9%). As to conditions: in vivo, other, 1008 h, at 144 g/ha.
Data set [4] relates to Vigna angularis. In words: Phytotoxicity in Vigna angularis (adzuki bean) assessed as visual injury at 72 g ai/ha after 14 days applied as spray relative to untreated control. As to conditions: in vivo, other, 336 h.
In data set [5] the test system is Vigna angularis. The data set can be described thus: Phytotoxicity in Vigna angularis (adzuki bean) assessed as visual injury at 144 g ai/ha after 14 days applied as spray relative to untreated control. Particulars: in vivo, other, 336 h.
Data set [6] deals with Vigna angularis. In words: Phytotoxicity in Vigna angularis (adzuki bean) assessed as plant height at 144 g ai/ha after 28 days applied as spray (RVB = 34 cm). As to conditions: in vivo, other, 672 h.
The test system of data set [7] is Vigna angularis. The data set can be described thus: Phytotoxicity in Vigna angularis (adzuki bean) assessed as visual injury at 72 g ai/ha after 28 days applied as spray relative to untreated control. As to conditions: in vivo, other, 672 h.
The subject of data set [8] is Vigna angularis. The data set can be described thus: Phytotoxicity in Vigna angularis (adzuki bean) assessed as shoot dry weight at 72 g ai/ha measured per 1 m row after 42 days applied as spray (reference value: 153 g). Particulars: in vivo, other, 1008 h.
The subject of data set [9] is Vigna angularis. The data set can be described thus: Phytotoxicity in Vigna angularis (adzuki bean) assessed as seed moisture content at 72 g ai/ha after 42 days applied as spray (reference value: 13.9%). Particulars: in vivo, other, 1008 h, at 72 g/ha.
Data set [10] relates to Vigna angularis. In words: Phytotoxicity in Vigna angularis (adzuki bean) assessed as crop yield at 144 g ai/ha measured during post emergence applied as spray (reference value: 2.05 t/ha). Particulars: in vivo, other.
Data set [11] relates to Vigna angularis. The data set can be described thus: Phytotoxicity in Vigna angularis (adzuki bean) assessed as plant height at 72 g ai/ha after 28 days applied as spray (RVB = 34 cm). Particulars: in vivo, other, 672 h.
Data set [12] has as its system Vigna angularis. In words: Phytotoxicity in Vigna angularis (adzuki bean) assessed as shoot dry weight at 144 g ai/ha measured per 1 m row after 42 days applied as spray (reference value: 153 g). Particulars: in vivo, other, 1008 h.
Data set [13] relates to Vigna angularis. The data set can be described thus: Phytotoxicity in Vigna angularis (adzuki bean) assessed as visual injury at 144 g ai/ha after 28 days applied as spray relative to untreated control. Particulars: in vivo, other, 672 h.
For data set [14], the system named is Vigna angularis. In words: Phytotoxicity in Vigna angularis (adzuki bean) assessed as visual injury at 144 g ai/ha after 7 days applied as spray relative to untreated control. As to conditions: in vivo, other, 168 h.
For data set [15], the system named is Vigna angularis. The data set can be described thus: Phytotoxicity in Vigna angularis (adzuki bean) assessed as seed moisture content at 500 g ai/ha after 42 days applied as spray (reference value: 13.9%). Particulars: in vivo, other, 1008 h, at 500 g/ha.
Data set [16] concerns Vigna angularis. In words: Phytotoxicity in Vigna angularis (adzuki bean) assessed as visual injury at 500 g ai/ha after 14 days applied as spray relative to untreated control. As to conditions: in vivo, other, 336 h.
In data set [17] the test system is Vigna angularis. The data set can be described thus: Phytotoxicity in Vigna angularis (adzuki bean) assessed as seed moisture content at 1000 g ai/ha after 42 days applied as spray (reference value: 13.9%). As to conditions: in vivo, other, 1008 h, at 1000 g/ha.
Data set [18] relates to Vigna angularis. In words: Phytotoxicity in Vigna angularis (adzuki bean) assessed as visual injury at 500 g ai/ha after 28 days applied as spray relative to untreated control. Particulars: in vivo, other, 672 h.
The subject of data set [19] is Vigna angularis. The data set can be described thus: Phytotoxicity in Vigna angularis (adzuki bean) assessed as visual injury at 1000 g ai/ha after 14 days applied as spray relative to untreated control. Particulars: in vivo, other, 336 h.
In data set [20] the test system is Vigna angularis. In words: Phytotoxicity in Vigna angularis (adzuki bean) assessed as crop yield at 1000 g ai/ha measured during post emergence applied as spray (reference value: 2.05 t/ha). Particulars: in vivo, other.
In data set [21] the test system is Vigna angularis. The data set can be described thus: Phytotoxicity in Vigna angularis (adzuki bean) assessed as shoot dry weight at 1000 g ai/ha measured per 1 m row after 42 days applied as spray (reference value: 153 g). Particulars: in vivo, other, 1008 h.
The subject of data set [22] is Vigna angularis. The data set can be described thus: Phytotoxicity in Vigna angularis (adzuki bean) assessed as visual injury at 500 g ai/ha after 7 days applied as spray relative to untreated control. As to conditions: in vivo, other, 168 h.
Data set [23] has as its system Vigna angularis. In words: Phytotoxicity in Vigna angularis (adzuki bean) assessed as shoot dry weight at 500 g ai/ha measured per 1 m row after 42 days applied as spray (reference value: 153 g). Particulars: in vivo, other, 1008 h.
The test system of data set [24] is Vigna angularis. The data set can be described thus: Phytotoxicity in Vigna angularis (adzuki bean) assessed as plant height at 500 g ai/ha after 28 days applied as spray (RVB = 34 cm). Particulars: in vivo, other, 672 h.
Data set [25] has as its system Vigna angularis. In words: Phytotoxicity in Vigna angularis (adzuki bean) assessed as visual injury at 1000 g ai/ha after 28 days applied as spray relative to untreated control. Particulars: in vivo, other, 672 h.
For data set [26], the system named is Vigna angularis. The data set can be described thus: Phytotoxicity in Vigna angularis (adzuki bean) assessed as plant height at 1000 g ai/ha after 28 days applied as spray (RVB = 34 cm). As to conditions: in vivo, other, 672 h.
Data set [27] concerns Vigna angularis. In words: Phytotoxicity in Vigna angularis (adzuki bean) assessed as visual injury at 1000 g ai/ha after 7 days applied as spray relative to untreated control. Particulars: in vivo, other, 168 h.
The subject of data set [28] is Vigna angularis. In words: Phytotoxicity in Vigna angularis (adzuki bean) assessed as crop yield at 500 g ai/ha measured during post emergence applied as spray (reference value: 2.05 t/ha). As to conditions: in vivo, other.

Regarding `CCOC(=O)[C@@H](C)Oc1ccc(Oc2cnc3cc(Cl)ccc3n2)cc1` [QUIZALOFOP-P-ETHYL], the Activity in the data set on Vigna angularis [1] was found to be 1.4%; in the data set on Vigna angularis [3], 14.1%; in the data set with Vigna angularis [4], 1.2%; in the data set on Vigna angularis [5], 1.8%; in the data set with Vigna angularis [6], 33.2 cm; with Vigna angularis [7], 0.3%. The Activity in the data set with Vigna angularis [8] is listed as 140 g; with Vigna angularis [9], 13.9%; in the data set on Vigna angularis [11], 35.2 cm; in the data set with Vigna angularis [12], 135 g; in the data set with Vigna angularis [13], 0.8%; with Vigna angularis [14], 2.4%. Also, the Crop_yield with Vigna angularis [2] was found to be 2.22 tons/ha; in the data set on Vigna angularis [10], 2.08 tons/ha.
In the case of `CCC/C(=N\OCC)C1=C(O)CC(CC(C)SCC)CC1=O` (stereo not drawn) [SETHOXYDIM], the Activity is on record as 14.1% in the data set on Vigna angularis [15]; 1.6% with Vigna angularis [16]; 14.3% with Vigna angularis [17]; 0.4% in the data set with Vigna angularis [18]; 3.6% in the data set with Vigna angularis [19]; 142 g with Vigna angularis [21]. The Activity in the data set on Vigna angularis [22] is given as 3.7%; in the data set with Vigna angularis [23], 134 g; in the data set on Vigna angularis [24] it was 33.1 cm; in the data set on Vigna angularis [25], 1.1%; in the data set with Vigna angularis [26], 32.8 cm; in the data set on Vigna angularis [27] it was 4.9%. The Crop_yield in the data set on Vigna angularis [20] is recorded as 1.95 tons/ha; in the data set on Vigna angularis [28], 2.04 tons/ha.
